Source: patent EP0159396B1, “Carboxyalkyl peptide derivatives” (G.D. Searle & Co., priority 1984, dated 1985)

Test system: rat model of inflammatory arthritis
Assay: rat model of inflammatory arthritis induced by Type II collagen (Trentham et al.)
Format: in vivo
Settings: arthritic rats' paws, test compound 100 mg/kg i.p. twice daily for 21 days, prednisolone 0.625 mg/kg b.i.d.
Method: The therapeutic effectiveness is assessed in the rat model of inflammatory arthritis described by Trentham et al. (1977). In this model, the arthritis, induced by an intradermal injection of Type II collagen, generally develops in both hind paws and the progression and severity of the lesion are monitored by physical measurements of the malleolar width and ankle extensibility.
The compound of example II in the present specification was administered by intraperitoneal injections at 100 mg/kg twice daily for 21 days commencing seven days after the injection of the disease.
Drugs (Example 1 or prednisolone) and vehicle were administered to groups of 10 rats each. Physical measurements on the rat paws were made weekly for four weeks and consisted of (a) the distance between the medial and lateral malleolus (malleolar width) and (b) the ankle extension which was measured by applying a standard force to the rat paw and measuring the angle formed between the flexor surface of the foot and tibia. Evidence of a therapeutic effect was denoted by a significant reduction in malleolar width and […] a significant increase in ankle extension. Both measurements were carried out on apparatus designed for the purpose. Area-under-the-curve data from these time course experiments was examined by non-parametric statistical analysis. The prednisolone standard was given at a dose of 0.625 mg/kg b.i.d. Prednisolone was chosen as a standard since steroids are known to be effective both clinically in Rheumatoid Arthritis and in animal models of arthritis.

[1] = experiment number 1, area-under-the-curve of weekly measurements over four weeks

| Compound | MALLEOLAR WIDTH, PERCENTAGE CHANGE FROM CONTROL [1] [%] | ANGLE EXTENSION, PERCENTAGE CHANGE FROM CONTROL (experiment number 1) [%] | ANGLE EXTENSION, PERCENTAGE CHANGE FROM CONTROL (experiment number 2) [%] | MALLEOLAR WIDTH, PERCENTAGE CHANGE FROM CONTROL (experiment number 2) [%] | ANGLE EXTENSION, PERCENTAGE CHANGE FROM CONTROL (experiment number 3) [%] | MALLEOLAR WIDTH, PERCENTAGE CHANGE FROM CONTROL (experiment number 3) [%] | ANGLE EXTENSION, PERCENTAGE CHANGE FROM CONTROL, MEAN (mean of experiments 1-3) [%] | MALLEOLAR WIDTH, PERCENTAGE CHANGE FROM CONTROL, MEAN (mean of experiments 1-3) [%] | MALLEOLAR WIDTH, […] FROM CONTROL [1] [%] | ANGLE EXTENSION, […] FROM CONTROL (experiment number 1) [%] | ANGLE EXTENSION, […] FROM CONTROL (experiment number 2) [%] | MALLEOLAR WIDTH, […] FROM CONTROL (experiment number 2) [%] | ANGLE EXTENSION, […] FROM CONTROL (experiment number 3) [%] | MALLEOLAR WIDTH, […] FROM CONTROL (experiment number 3) [%] | ANGLE EXTENSION, […] FROM CONTROL, MEAN (mean of experiments 1-3) [%] | MALLEOLAR WIDTH, […] FROM CONTROL, MEAN (mean of experiments 1-3) [%] |
| --- | --- | --- | --- | --- | --- | --- | --- | --- | --- | --- | --- | --- | --- | --- | --- | --- |
| CNC(=O)[C@H](Cc1ccc(OC)cc1)NC(=O)[C@H](CC(C)C)N[C@H](CCNC(=O)OCc1ccccc1)C(=O)O [Example 1, N-[3-N-(Benzyloxycarbonyl)amino-I-(R)-carboxypropyl]-L-leucyl-O-methyl-L-tyrosine N-Methylamide] | 65 | 66 | 39 | 43 | 39 | 41 | 48 | 50 |  |  |  |  |  |  |  |  |
| C[C@]12C=CC(=O)C=C1CC[C@@H]1[C@@H]2[C@@H](O)C[C@@]2(C)[C@H]1CC[C@]2(O)C(=O)CO [Prednisolone] |  |  |  |  |  |  |  |  | 98 | 100 | 96 | 96 | 95 | 97 | 97 | 97 |
